According to PMC6445164, “Primary mono- and bis-sulfonamides obtained via regiospecific sulfochlorination of N-arylpyrazoles: inhibition profile against a panel of human carbonic anhydrases” (Journal of Enzyme Inhibition and Medicinal Chemistry, 2017):
Like-named read-outs stand apart in the source and are kept apart here.

Columns and labels:
hCA II = hCA II (Homo sapiens, UniProt P00918); assay: stopped-flow CA catalysed CO2 hydration assay, hCA II
Description: (§1) An applied photophysics stopped-flow instrument has been used for assaying the CA catalysed CO2 hydration activity[21]. […] The CO2 concentrations ranged from 1.7 to 17 mM for the determination of the kinetic parameters and inhibition constants. […] The uncatalysed rates were determined in the same manner and subtracted from the total observed rates. Stock solutions of inhibitor (0.1 mM) were prepared in distilled-deionized water and dilutions up to 0.005 nM were done thereafter with the assay buffer. Inhibitor and enzyme solutions were preincubated together for 15 min at room temperature prior to assay, in order to allow for the formation of the E–I complex. The inhibition constants were obtained by non-linear least-squares methods using PRISM 3 and the Cheng–Prusoff equation, as reported earlier, and represent the mean from at least three different determinations. All CA isoforms were recombinant ones obtained in-house[22–25].

hCA VII = hCA VII (Homo sapiens, UniProt P43166); assay: stopped-flow CA catalysed CO2 hydration assay, hCA VII
Description: as §1

hCA IV = hCA IV (Homo sapiens, UniProt P22748); assay: stopped-flow CA catalysed CO2 hydration assay, hCA IV
Description: as §1

hCA I = hCA I (Homo sapiens, UniProt P00915); assay: stopped-flow CA catalysed CO2 hydration assay, hCA I
Description: as §1

[1] = within the panel hCA I, II, IV, VII
[2] = read-out: hCA Ki (μM) hCA II, recombinant enzyme, stopped-flow CO2 hydration, 15 min preincubation, pH 8.3
[3] = read-out: hCA Ki (μM) hCA VII, recombinant enzyme, stopped-flow CO2 hydration, 15 min preincubation, pH 8.3
[4] = read-out: hCA Ki (μM) hCA IV, recombinant enzyme, stopped-flow CO2 hydration, 15 min preincubation, pH 8.3
[5] = read-out: hCA Ki (μM) hCA I, recombinant enzyme, stopped-flow CO2 hydration, 15 min preincubation, pH 8.3

Sequence of hCA I (P00915 whole entry): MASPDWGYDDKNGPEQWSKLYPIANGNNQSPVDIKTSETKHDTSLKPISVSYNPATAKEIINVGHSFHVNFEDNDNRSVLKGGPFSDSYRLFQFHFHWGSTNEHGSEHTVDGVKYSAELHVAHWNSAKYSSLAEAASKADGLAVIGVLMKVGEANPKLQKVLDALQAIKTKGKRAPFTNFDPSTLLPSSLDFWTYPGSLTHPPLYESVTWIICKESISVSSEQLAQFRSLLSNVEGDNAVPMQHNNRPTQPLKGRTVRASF
Sequence of hCA IV (P22748 19-312): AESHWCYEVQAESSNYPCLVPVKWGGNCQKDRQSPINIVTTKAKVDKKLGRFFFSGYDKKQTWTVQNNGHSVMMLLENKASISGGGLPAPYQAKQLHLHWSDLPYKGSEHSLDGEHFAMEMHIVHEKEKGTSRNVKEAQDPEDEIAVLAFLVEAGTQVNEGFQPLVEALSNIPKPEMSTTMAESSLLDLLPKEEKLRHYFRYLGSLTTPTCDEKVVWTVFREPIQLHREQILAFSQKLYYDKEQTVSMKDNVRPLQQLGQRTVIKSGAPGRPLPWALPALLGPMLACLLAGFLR
Sequence of hCA VII (P43166 whole entry): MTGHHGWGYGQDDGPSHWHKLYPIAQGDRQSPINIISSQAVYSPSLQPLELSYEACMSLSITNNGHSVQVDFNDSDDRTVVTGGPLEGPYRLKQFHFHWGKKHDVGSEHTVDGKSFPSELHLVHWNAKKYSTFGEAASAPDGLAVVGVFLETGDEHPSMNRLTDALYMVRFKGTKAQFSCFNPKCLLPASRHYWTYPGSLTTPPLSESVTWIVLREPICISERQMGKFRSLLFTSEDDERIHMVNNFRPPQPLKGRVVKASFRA

Row | Structure (SMILES) | Ki (hCA II) [µM] | melting point [°C] | Ki (hCA VII) [µM] | Ki (hCA IV) [µM] | Ki (hCA I) [µM] | other results
1 | Cc1nn(-c2ccccc2)c(C)c1S(N)(=O)=O [Compound 8b, 3,5-Dimethyl-1-phenyl-^1H-pyrazole-4-sulfonamide] | 0.28 | 161 to 163 | 0.53 | > 10 | 0.54 | 
2 | Cc1nn(-c2ccccc2Cl)c(C)c1S(N)(=O)=O [Compound 8i, 1-(2-Chlorophenyl)-3,5-dimethyl-^1H-pyrazole-4-sulfonamide] | 2.64 | 204 to 206 | > 10 | 7.19 | 0.62 | 
3 | Cc1nn(-c2ccc(Cl)c(S(N)(=O)=O)c2)c(C)c1S(N)(=O)=O [Compound 9m, 1-(4-Chloro-3-sulfamoylphenyl)-3,5-dimethyl-^1H-pyrazole-4-sulfonamide] | 0.04 | 241 to 243 | 0.65 | 0.077 | 0.89 | 
4 | Cc1nn(-c2cc(S(N)(=O)=O)ccc2Cl)c(C)c1S(N)(=O)=O [Compound 9q, 1-(2-Chloro-5-sulfamoylphenyl)-3,5-dimethyl-^1H-pyrazole-4-sulfonamide] | 0.025 | 230 to 232 | > 10 | 4.38 | 2.12 | isoform selectivity for hCA II, in words (hCA II; [1]): selective hCA II inhibitor
5 | Cc1cc(C)n(-c2ccc(S(N)(=O)=O)c(C)c2)n1 [Compound 7c, 4-(3,5-Dimethyl-^1H-pyrazol-1-yl)-2-methylbenzenesulfonamide] | 0.004 | 194 to 196 | 0.04 | 0.033 | 0.26 | 
6 | Cc1nn(-c2ccc(S(N)(=O)=O)c(Cl)c2)c(C)c1S(N)(=O)=O [Compound 9o, 1-(3-Chloro-4-sulfamoylphenyl)-3,5-dimethyl-^1H-pyrazole-4-sulfonamide] | 0.008 | 198 to 201 | 0.71 | 0.93 | 0.16 | 
7 | COc1cc(-n2nc(C)cc2C)ccc1S(N)(=O)=O [Compound 7i, 4-(3,5-Dimethyl-^1H-pyrazol-1-yl)-2-methoxybenzenesulfonamide] | > 10 | 156 to 158 | > 10 | > 10 | 8.85 | 
8 | COc1ccc(-n2cccn2)cc1S(N)(=O)=O [Compound 7h] |  |  |  |  |  | Ki (hCA II; [2]): > 10 µM; Ki (hCA VII; [3]): > 10 µM; hCA IV inhibition, in words (hCA IV): loss of hCA IV inhibition activity; Ki (hCA IV; [4]): > 10 µM; Ki (hCA I; [5]): > 10 µM
9 | Cc1nn(-c2cccc(S(N)(=O)=O)c2)c(C)c1S(N)(=O)=O [Compound 9a, 3,5-Dimethyl-1-(3-sulfamoylphenyl)-^1H-pyrazole-4-sulfonamide] | 0.021 | 223 to 225 | 0.26 | 0.065 | 0.5 | 
10 | COc1ccc(S(N)(=O)=O)cc1-n1cccn1 [Compound 7l, 4-Methoxy-3-(^1H-pyrazol-1-yl)benzenesulfonamide] | 6.65 | 255 to 257 | > 10 | > 10 | > 10 | 
11 | Cc1nn(-c2ccc(Cl)cc2)c(C)c1S(N)(=O)=O [Compound 8a, 1-(4-Chlorophenyl)-3,5-dimethyl-^1H-pyrazole-4-sulfonamide] | 5.33 | 164 to 166 | > 10 | > 10 | 0.76 | 
12 | Cc1ccc(S(N)(=O)=O)cc1-n1cccn1 [Compound 7f] |  |  |  |  |  | Ki (hCA II; [2]): 0.059 µM; Ki (hCA VII; [3]): 0.059 µM; Ki (hCA IV; [4]): > 10 µM; Ki (hCA I; [5]): 1.23 µM
13 | COc1ccc(-n2nc(C)cc2C)cc1S(N)(=O)=O [Compound 7g, 5-(3,5-Dimethyl-^1H-pyrazol-1-yl)-2-methoxybenzenesulfonamide] | > 10 | 195 to 197 | > 10 | > 10 | > 10 | 
14 | NS(=O)(=O)c1cnn(-c2cccc(Cl)c2)c1 [Compound 8h, (3-Chlorophenyl)-^1H-pyrazole-4-sulfonamide] |  |  |  |  |  | hCA II inhibition, in words (hCA II): good hCA I, II and VII inhibition activity; Ki (hCA II; [2]): 0.14 µM; hCA VII inhibition, in words (hCA VII): good hCA I, II and VII inhibition activity; Ki (hCA VII; [3]): 0.24 µM; Ki (hCA IV; [4]): 3.74 µM; hCA I inhibition, in words (hCA I): good hCA I, II and VII inhibition activity; Ki (hCA I; [5]): 0.54 µM
15 | COc1ccc(-n2nc(C)c(S(N)(=O)=O)c2C)cc1S(N)(=O)=O [Compound 9j, 1-(4-Methoxy-3-sulfamoylphenyl)-3,5-dimethyl-^1H-pyrazole-4-sulfonamide] | 0.96 | 254 to 257 | 0.33 | > 10 | 0.95 | 
16 | Cc1ccc(S(N)(=O)=O)cc1-n1nc(C)c(S(N)(=O)=O)c1C [Compound 9h, 3,5-Dimethyl-1-(2-methyl-5-sulfamoylphenyl)-^1H-pyrazole-4-sulfonamide] | > 10 | 308 to 310 | > 10 | > 10 | 0.87 | isoform selectivity for hCA I, in words (hCA I; [1]): selective inhibitor of hCA I
17 | Cc1nn(-c2ccc(S(N)(=O)=O)cc2)c(C)c1S(N)(=O)=O [Compound 9b, 3,5-Dimethyl-1-(4-sulfamoylphenyl)-^1H-pyrazole-4-sulfonamide] | 0.005 | 272 to 274 | 0.035 | 0.111 | 0.33 | 
18 | COc1ccc(S(N)(=O)=O)cc1-n1nc(C)cc1C [Compound 7k, 3-(3,5-Dimethyl-^1H-pyrazol-1-yl)-4-methoxybenzenesulfonamide] | > 10 | 167 to 170 | > 10 | > 10 | > 10 | hCA II inhibition, in words (hCA II): inactive throughout the panel; hCA VII inhibition, in words (hCA VII): inactive throughout the panel; hCA IV inhibition, in words (hCA IV): inactive throughout the panel; hCA I inhibition, in words (hCA I): inactive throughout the panel
19 | Cc1cc(-n2nc(C)c(S(N)(=O)=O)c2C)ccc1S(N)(=O)=O [Compound 9f, 3,5-Dimethyl-1-(3-methyl-4-sulfamoylphenyl)-^1H-pyrazole-4-sulfonamide] | 0.002 | 143 to 146 | 0.019 | 0.022 | 0.47 | 
20 | NS(=O)(=O)c1ccc(Cl)c(-n2cc(S(N)(=O)=O)cn2)c1 [Compound 9r, 1-(2-Chloro-5-sulfamoylphenyl)-^1H-pyrazole-4-sulfonamide] | 0.005 | 235 to 237 | 0.6 | 0.022 | 0.55 | 
21 | NS(=O)(=O)c1cnn(-c2ccc(S(N)(=O)=O)c(Cl)c2)c1 [Compound 9p, 1-(3-Chloro-4-sulfamoylphenyl)-^1H-pyrazole-4-sulfonamide] | 0.008 | 195 to 197 | 0.48 | 0.075 | 3.08 | 
22 | Cc1nn(-c2cccc(Cl)c2)c(C)c1S(N)(=O)=O [Compound 8g, 1-(3-Chlorophenyl)-3,5-dimethyl-^1H-pyrazole-4-sulfonamide] | 1.08 | 182 to 184 | 0.46 | 9.49 | 0.94 | 
23 | COc1ccc(S(N)(=O)=O)cc1-n1nc(C)c(S(N)(=O)=O)c1C [Compound 9l, 1-(2-Methoxy-5-sulfamoylphenyl)-3,5-dimethyl-^1H-pyrazole-4-sulfonamide] | 0.3 | 238 to 242 | > 10 | 0.95 | 6.8 | 
24 | Cc1ccccc1-n1nc(C)c(S(N)(=O)=O)c1C [Compound 8e, 3,5-Dimethyl-1-(2-methylphenyl)-^1H-pyrazole-4-sulfonamide] | 0.091 | 161 to 163 | > 10 | > 10 | 0.6 | 
25 | Cc1cccc(-n2nc(C)c(S(N)(=O)=O)c2C)c1 [Compound 8d, 3,5-Dimethyl-1-(3-methylphenyl)-^1H-pyrazole-4-sulfonamide] | 0.24 | 174 to 176 | 0.94 | > 10 | 0.27 | 
26 | Cc1ccc(-n2cccn2)cc1S(N)(=O)=O [Compound 7b, 2-Methyl-5-(^1H-pyrazol-1-yl)benzenesulfonamide] | > 10 | 147 to 149 | > 10 | 0.56 | > 10 | hCA IV inhibition, in words (hCA IV): potent inhibition of hCA IV; isoform selectivity for hCA IV, in words (hCA IV; [1]): high selectivity
27 | Cc1ccc(-n2cc(S(N)(=O)=O)cn2)cc1S(N)(=O)=O [Compound 9e, 1-(4-Methyl-3-sulfamoylphenyl)-^1H-pyrazole-4-sulfonamide] | 0.004 | 217 to 220 | 0.068 | 0.24 | 0.3 | 
28 | Cc1ccc(-n2nc(C)c(S(N)(=O)=O)c2C)cc1S(N)(=O)=O [Compound 9d, 3,5-Dimethyl-1-(4-methyl-3-sulfamoylphenyl)-^1H-pyrazole-4-sulfonamide] | > 10 |  | > 10 |  | > 10 | 
29 | Cc1cc(C)n(-c2ccc(S(N)(=O)=O)cc2)n1 [Compound 7o, 4-(3,5-Dimethyl-^1H-pyrazol-1-yl)benzenesulfonamide] | 0.004 |  | 0.017 | 0.084 | 0.462 | 
